Format in all cases: functional
Test [1] relates to Ehrlich. Description: In vivo antitumor activity against mouse Ehrlich ascite carcinoma cells xenografted in mouse assessed as suppression of tumor growth at 70 mg/kg.
The subject of a further test is CCRF S-180. Description: In vivo antitumor activity against mouse S180 cells xenografted in mouse assessed as suppression of tumor growth at 70 mg/kg.
For test [2], the system named is Ehrlich. As to the kind of experiment: In vivo antitumor activity against Ehrlich ascite carcinoma in mouse.
A short description of test [3]: In vivo antitumor activity against ascites carcinoma in mouse.
The test system of test [4] is Lewis lung carcinoma cell line. Description: In vivo antitumor activity against mouse Lewis lung carcinoma cells xenografted in mouse assessed as suppression of tumor growth at 100 mg/kg.

SMILES strings stand for the structures.

Regarding `COc1ccc2cc1Oc1ccc(cc1)C[C@H]1c3cc(OC)c(OC)c(c3CCN1C)Oc1c(OC)c(OC)cc3c1[C@H](C2)N(C)CC3` [THALIDASINE], the figures for the Activity (with Ehrlich [1]; with CCRF S-180; in test [4]) were 50%, 20% and 58%, respectively. In addition, the LD50 in the test on Ehrlich [2] was found to be 520 mg/kg; in test [3], 300 mg/kg.

The values are drawn from ChEMBL document CHEMBL1151407, “Bisbenzylisoquinoline Alkaloids” (1983).
